Measurements as given in patent publication US20200024278A1, “COMPOSITION COMPRISING ANTIBIOTIC COMPOUND AND AN HETEROCYCLIC COMPOUND AND THEIR USE IN PREVENTING OR TREATING BACTERIAL INFECTIONS” (MUTABILIS, priority 2016, published 2020).

What was measured:
Assay in all cases: MIC, broth microdilution (CLSI), substance alone or ATB combined with compound at 4 or 8 μg/mL
Assay type in all cases: cell-based, A. baumannii
[1] = system: ABA UFR153
Description: (§1) Compounds of the present invention were assessed against genotyped bacterial strains alone or in combination with an antibacterial. In the assays, MICs of said compounds or combination of antibiotics with fixed concentrations of said compounds (4 or 8 μg/mL) were determined by the broth microdilution method according to the Clinical Laboratory Standards Institute (CLSI-M7-A7). Briefly, compounds alone according to the invention were prepared in DMSO and spotted (2 μL each) on sterile polystyrene plates (Corning, 3788). Combinations of compounds and antibiotics dilutions were prepared in DMSO and spotted (1 μL each) on sterile polystyrene plates (Corning, 3788). Log phase bacterial suspensions were adjusted to a final density of 5·10^5 CFU/mL in cation-adjusted Mueller-Hinton broth (ca-MHB; Becton-Dickinson and Company) and added to each well (98 μL). Assays including Fosfomycin were supplemented with 25 μg/ml of Glucose-6-phosphate. Microplates were incubated for 16-20 h at 35° C. in ambient air. The MIC of the compounds was defined as the lowest concentration of said compounds that prevented bacterial growth as read by visual inspection. The MIC of ATB at each compound concentration was defined as the lowest concentration of ATB that prevented bacterial growth as read by visual inspection.

[2] = system: ABA UFR154
Description: as §1

[3] = system: ABA UFR155
Description: as §1

[4] = system: ABA UFR159
Description: as §1

[5] = system: ABA 19606
Description: as §1

[6] = system: ABA UFR160
Description: as §1

[7] = system: ABA UFR152
Description: as §1

MIC ATB combined with Example 9 @4 μg/ml ([1]; with Example 9 @4 μg/ml): 0.5 µg/mL
MIC ATB combined with Example 10 @8 μg/ml ([1]; with Example 10 @8 μg/ml): <=0.25 μg/mL
MIC ATB combined with Example 11 @8 μg/ml ([1]; with Example 11 @8 μg/ml): <=0.25 μg/mL
MIC ATB combined with Example 12 @8 μg/ml ([1]; with Example 12 @8 μg/ml): <=0.25 μg/mL
MIC ATB combined with Example 15 @4 μg/ml ([1]; with Example 15 @4 μg/ml): <=0.25 μg/mL
MIC ATB alone ([2]; antibiotic alone): 8 µg/mL
MIC ATB combined with Example 1 @8 μg/ml ([2]; with Example 1 @8 μg/ml): 1 µg/mL
MIC ATB combined with Example 3 @8 μg/ml ([2]; with Example 3 @8 μg/ml): 0.5 µg/mL
MIC ATB combined with Example 6 @8 μg/ml ([2]; with Example 6 @8 μg/ml): <=0.25 μg/mL
MIC ATB combined with Example 9 @4 μg/ml ([2]; with Example 9 @4 μg/ml): 0.5 µg/mL
MIC ATB combined with Example 10 @8 μg/ml ([2]; with Example 10 @8 μg/ml): <=0.25 μg/mL
MIC ATB combined with Example 11 @8 μg/ml ([2]; with Example 11 @8 μg/ml): <=0.25 μg/mL
MIC ATB combined with Example 12 @8 μg/ml ([2]; with Example 12 @8 μg/ml): <=0.25 μg/mL
MIC ATB combined with Example 15 @4 μg/ml ([2]; with Example 15 @4 μg/ml): 0.5 µg/mL
MIC ATB alone ([3]; antibiotic alone): 16 µg/mL
MIC ATB combined with Example 1 @8 μg/ml ([3]; with Example 1 @8 μg/ml): 4 µg/mL
MIC ATB combined with Example 3 @8 μg/ml ([3]; with Example 3 @8 μg/ml): 1 µg/mL
MIC ATB combined with Example 6 @8 μg/ml ([3]; with Example 6 @8 μg/ml): 2 µg/mL
MIC ATB combined with Example 9 @4 μg/ml ([3]; with Example 9 @4 μg/ml): 8 µg/mL
MIC ATB combined with Example 10 @8 μg/ml ([3]; with Example 10 @8 μg/ml): 2 µg/mL
MIC ATB combined with Example 11 @8 μg/ml ([3]; with Example 11 @8 μg/ml): 4 µg/mL
MIC ATB combined with Example 12 @8 μg/ml ([3]; with Example 12 @8 μg/ml): 2 µg/mL
MIC ATB combined with Example 15 @4 μg/ml ([3]; with Example 15 @4 μg/ml): 8 µg/mL
MIC ATB alone ([4]; antibiotic alone): 256 µg/mL
MIC ATB combined with Example 1 @8 μg/ml ([4]; with Example 1 @8 μg/ml): 128 µg/mL
MIC ATB combined with Example 3 @8 μg/ml ([4]; with Example 3 @8 μg/ml): 128 µg/mL
MIC ATB combined with Example 6 @8 μg/ml ([4]; with Example 6 @8 μg/ml): 128 µg/mL
MIC ATB combined with Example 9 @4 μg/ml ([4]; with Example 9 @4 μg/ml): 128 µg/mL
MIC ATB combined with Example 10 @8 μg/ml ([4]; with Example 10 @8 μg/ml): 128 µg/mL
MIC ATB combined with Example 11 @8 μg/ml ([4]; with Example 11 @8 μg/ml): 128 µg/mL
MIC ATB combined with Example 12 @8 μg/ml ([4]; with Example 12 @8 μg/ml): 128 µg/mL
MIC ATB combined with Example 15 @4 μg/ml ([4]; with Example 15 @4 μg/ml): 128 µg/mL
MIC ATB alone ([5]; antibiotic alone): 1 µg/mL
MIC ATB combined with Example 1 @8 μg/ml ([5]; with Example 1 @8 μg/ml): 1 µg/mL
MIC ATB combined with Example 3 @8 μg/ml ([5]; with Example 3 @8 μg/ml): <=0.25 μg/mL
MIC ATB combined with Example 6 @8 μg/ml ([5]; with Example 6 @8 μg/ml): <=0.25 μg/mL
MIC ATB combined with Example 9 @4 μg/ml ([5]; with Example 9 @4 μg/ml): <=0.25 μg/mL
MIC ATB combined with Example 10 @8 μg/ml ([5]; with Example 10 @8 μg/ml): <=0.25 μg/mL
MIC ATB combined with Example 11 @8 μg/ml ([5]; with Example 11 @8 μg/ml): <=0.25 μg/mL
MIC ATB combined with Example 12 @8 μg/ml ([5]; with Example 12 @8 μg/ml): <=0.25 μg/mL
MIC ATB combined with Example 15 @4 μg/ml ([5]; with Example 15 @4 μg/ml): <=0.25 μg/mL
MIC ATB alone ([6]; antibiotic alone): >128 µg/mL
MIC ATB combined with Example 1 @8 μg/ml ([6]; with Example 1 @8 μg/ml): 64 µg/mL
MIC ATB combined with Example 3 @8 μg/ml ([6]; with Example 3 @8 μg/ml): 64 µg/mL
MIC ATB combined with Example 6 @8 μg/ml ([6]; with Example 6 @8 μg/ml): <0.25 µg/mL
MIC ATB combined with Example 9 @4 μg/ml ([6]; with Example 9 @4 μg/ml): 64 µg/mL
MIC ATB combined with Example 10 @8 μg/ml ([6]; with Example 10 @8 μg/ml): 64 µg/mL
MIC ATB combined with Example 11 @8 μg/ml ([6]; with Example 11 @8 μg/ml): 64 µg/mL
MIC ATB combined with Example 12 @8 μg/ml ([6]; with Example 12 @8 μg/ml): 64 µg/mL
MIC ATB combined with Example 15 @4 μg/ml ([6]; with Example 15 @4 μg/ml): 64 µg/mL
MIC ATB alone ([7]; antibiotic alone): 4 µg/mL
MIC ATB combined with Example 1 @8 μg/ml ([7]; with Example 1 @8 μg/ml): 4 µg/mL
MIC ATB combined with Example 3 @8 μg/ml ([7]; with Example 3 @8 μg/ml): 1 µg/mL
MIC ATB combined with Example 6 @8 μg/ml ([7]; with Example 6 @8 μg/ml): 2 µg/mL
MIC ATB combined with Example 9 @4 μg/ml ([7]; with Example 9 @4 μg/ml): 2 µg/mL
MIC ATB combined with Example 10 @8 μg/ml ([7]; with Example 10 @8 μg/ml): 1 µg/mL
MIC ATB combined with Example 11 @8 μg/ml ([7]; with Example 11 @8 μg/ml): 1 µg/mL
MIC ATB combined with Example 12 @8 μg/ml ([7]; with Example 12 @8 μg/ml): 1 µg/mL
MIC ATB combined with Example 15 @4 μg/ml ([7]; with Example 15 @4 μg/ml): 2 µg/mL
Structure (SMILES): CC1(C)[C@H](C(=O)O)N2C(=O)C[C@H]2S1(=O)=O [SUL]
